Test results published in patent US11008321B2, “Crystalline form of an avibactam derivative” (ARIXA PHARMACEUTICALS, INC., priority 2019, dated 2021).

Key:
[1] = trans isomer vs cis isomer; cited from earlier work
[2] = Jet milling, crystalline form by XRPD before and after; assay type: physicochemical; settings: jet milled, particle size about 8.6 μm
Procedure: X-ray powder diffraction (XPRD) analysis was performed using a Panalytical X-Pert Powder XPRD (Malvem Panalytical Ltd.) on a Si zero-background holder. The 20 position was calibrated against a Panalytical Si standard disc. The X-ray wavelength was Kα2/Kα1 (1.540598 Å/1.544425 Å) at a 0.5 intensity ratio. The X-ray tube was set at an output voltage of 45 kV and a current of 40 mA. A ⅛° fixed divergence slit was used and the diffraction patterns were obtained from 3° to 40° (°2θ) in a continuous scan mode using a step size of 0.01310 (2θ) and a scan speed of 0.145 deg/min. Crystalline anhydrate (1) was jet milled to obtain a uniform particle size distribution centered at a about 8.6 μm. An Alpine 50AS (PDS-PL-JM-01) Jet Mill (Hosokawa Alpine) was used to prepare the formulation. The injector gas pressure was 4.0 Bar and the grinding gas pressure was 3.5 Bar. Five (5) gm of crystalline anhydrate (1) was gradually added to the jet mill and collected. The milled product was stored at a temperature from 2° C. to 8° C.

[3] = Thermogravimetric analysis; assay type: physicochemical; settings: 10° C./min, N2
Procedure: Thermogravimetric analysis was performed using a TA Instruments Q500 TGA calibrated using a nickel reference standard. Samples were placed in an open platinum pan and after equilibrating at 35° C., the samples were heated under a nitrogen (N2) atmosphere at a rate of 10° C./min to a final temperature of 200° C. TGA curves for crystalline ethyl 3-(((((1R,2S,5R)-2-carbamoyl-7-oxo-1,6-diazabicyclo[3.2.1]octan-6-yl)oxy)sulfonyl)oxy)-2,2-dimethylpropanoate anhydrate are shown in FIGS. 2 and 4 show a weight loss of 9.7% between 125° C. to 150° C. The weight loss form 30° C. to 125° C. was 0.77%.

[4] = Stability in aqueous suspension formulation (XRPD); assay type: physicochemical; settings: 25° C., 24 hours; 0.25 wt % Tween 80, 10 wt % PEG 400, 0.5 wt % methylcellulose, pH 3.0 citrate buffer
Procedure: X-ray powder diffraction (XPRD) analysis was performed using a Panalytical X-Pert Powder XPRD (Malvem Panalytical Ltd.) on a Si zero-background holder. The 20 position was calibrated against a Panalytical Si standard disc. The X-ray wavelength was Kα2/Kα1 (1.540598 Å/1.544425 Å) at a 0.5 intensity ratio. The X-ray tube was set at an output voltage of 45 kV and a current of 40 mA. A ⅛° fixed divergence slit was used and the diffraction patterns were obtained from 3° to 40° (°2θ) in a continuous scan mode using a step size of 0.01310 (2θ) and a scan speed of 0.145 deg/min. An aqueous formulation of crystalline anhydrate (1) was prepared by suspending 100 mg crystalline anhydrate (1) in 100 mL of an aqueous solution containing 0.25 wt % Tween® 80, 10 wt % PEG 400, 0.5 wt % methylcellulose (400 cps), and a pH 3.0 citrate buffer. The suspension was sonicated and equilibrated for 24 hours at 25° C. before filtering out the crystalline anhydrate (1).

[5] = Dynamic vapor sorption (hygroscopicity); assay type: physicochemical
Procedure: The hygroscopicity of crystalline ethyl 3-(((((1R,2S,5R)-2-carbamoyl-7-oxo-1,6-diazabicyclo[3.2.1]octan-6-yl)oxy)sulfonyl)oxy)-2,2-dimethylpropanoate anhydrate (1) was evaluated during one vapor sorption/desorption cycle using a SMS DVS Intrinsic from Surface Measurement Systems set at 25° C., with a nitrogen (N2) gas flow rate of 200 mL/min, a dm/dt of 0.02%/min and a minimum dm/dt stability duration of 10 min. Samples (10 mg to 20 mg) were first dried at 25° C. for 180 min under a nitrogen atmosphere. The samples were considered equilibrated with the weight change during a 2-min interval was less than 0.01%. To evaluate the DVS the samples were exposed to a humidity cycle ramped/de-ramped from 5% RH to 95% RH at 10% RH intervals. At each humidity interval, the samples were equilibrated as determined by a less than 0.01% weight change during 5 min.

[6] = Stability on exposure to ambient conditions and formulation processing; assay type: physicochemical

crystalline form before and after jet-milling (XRPD) [2]	weight loss (TGA) ([3]; 30° C. to 125° C.) [%]	weight loss (TGA) ([3]; between 125° C. to 150° C.) [%]	stability in an aqueous suspension (XRPD similarity) [4]	change of crystalline form during water absorption/desorption (reversibility of DVS isotherm) ([5]; 25° C., one sorption/desorption cycle, 5% RH to 95% RH)	maximum increase in mass (moisture absorption) ([5]; 25° C./95% RH, humidity range 0% RH to 95% RH, reversible)	stability following exposure to ambient conditions ([6]; 25° C./60% RH)	stability during formulation processing conditions ([6]; formulation processing conditions)	Structure (SMILES)	antibiotic activity of trans isomer relative to cis isomer [1]
								Nc1nc(/C(=C/CC(=O)O)C(=O)N[C@@H]2C(=O)N3C(C(=O)O)=CCS[C@H]23)cs1 [Ceftibuten, (6R,7R)-7-((Z)-2-(2-amino-4-thiazolyl)-4-carboxycrotonamido)-8-oxo-5-thia-1-azabicyclo(4.2.0)oct-2-ene-2-carboxylic acid]	about one-eighth
the same	0.77	9.7	stable	does not change	about 3 wt %	stable	stable	CCOC(=O)C(C)(C)COS(=O)(=O)ON1C(=O)N2C[C@H]1CC[C@H]2C(N)=O [crystalline anhydrate (1), ethyl 3-(((((1R,2S,5R)-2-carbamoyl-7-oxo-1,6-diazabicyclo[3.2.1]octan-6-yl)oxy)sulfonyl)oxy)-2,2-dimethylpropanoate]	
